Target: T1, C640S mutant glucocorticoid receptor (Rattus norvegicus, UniProt P06536, C640S/D98G)
T1 construct: Thus the full length receptor was removed from the VARO vector with BamHI and inserted into the SVL vector; expressed in transfected cells; host or cells: COS-7 (cytosol)
T1 sequence (P06536 1-795 D98G/C640S): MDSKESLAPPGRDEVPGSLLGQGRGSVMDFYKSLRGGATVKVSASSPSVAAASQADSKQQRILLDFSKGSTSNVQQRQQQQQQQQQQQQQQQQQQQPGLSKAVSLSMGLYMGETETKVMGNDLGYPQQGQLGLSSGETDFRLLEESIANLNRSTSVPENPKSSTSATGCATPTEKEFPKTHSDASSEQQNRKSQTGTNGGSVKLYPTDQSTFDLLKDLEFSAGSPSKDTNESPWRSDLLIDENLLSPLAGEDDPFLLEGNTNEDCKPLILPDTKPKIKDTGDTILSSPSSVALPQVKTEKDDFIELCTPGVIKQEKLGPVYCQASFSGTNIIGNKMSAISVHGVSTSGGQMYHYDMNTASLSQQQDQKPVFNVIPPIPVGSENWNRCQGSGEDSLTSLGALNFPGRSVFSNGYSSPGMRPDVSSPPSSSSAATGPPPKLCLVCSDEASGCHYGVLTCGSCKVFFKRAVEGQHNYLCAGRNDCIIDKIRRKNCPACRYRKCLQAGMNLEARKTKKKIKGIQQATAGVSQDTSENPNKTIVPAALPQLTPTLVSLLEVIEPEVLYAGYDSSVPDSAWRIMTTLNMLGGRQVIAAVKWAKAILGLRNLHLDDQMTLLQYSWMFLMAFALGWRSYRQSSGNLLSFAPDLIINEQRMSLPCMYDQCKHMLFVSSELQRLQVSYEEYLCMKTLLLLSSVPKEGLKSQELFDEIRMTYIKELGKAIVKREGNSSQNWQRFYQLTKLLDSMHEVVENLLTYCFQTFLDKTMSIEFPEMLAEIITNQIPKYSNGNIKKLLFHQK
Assay: Competition binding assay with [3H]Dex, COS-7 cytosol, C640S receptor
Method: Monolayer cultures of COS-7 cells were grown in DMEM (Gibco) supplemented with 5% fetal bovine serum (FBS) (Biofluids) at 37° C. in a 5% CO2 incubator. Standard calcium phosphate transfection methods were used to introduce the wild type and mutant receptor expression vectors (pSVL) into COS-7 cells (100 mm plates [Costar] at a cell density of about 10^6 /plate were each treated with 10 μg of plasmid DNA). After ~16 hrs of incubation at 37° C. in a 5% CO2 incubator, the excess calcium phosphate and precipitate were removed by washing with phosphate buffered saline (PBS). The cells were incubated at 37° C. for another ~48 hr in DMEM/ 5% FBS and harvested by trypsinization followed by centrifugation (for 10 min at 1570 ×g) and washing 3 times with PBS. The washed cells were stored at -80° C. until used.
COS-7 cell cytosol containing the steroid-free receptors was prepared by cell lysis at -80° C. and centrifugation at 15,000 ×g and labeled as described for HTC cells (S. S. Simons and P. A. Miller, Biochem 23:6876-6882 (1984)). […] The specifically bound [^3 H]Dex was determined by first adding a 10% dextran-coated charcoal solution (added volume =20% of reaction solution volume) to remove free steroid and then subtracting the nonspecific binding seen in the presence of excess nonradioactive Dex.
Duplicate aliquots (72 μl) of COS-7 cell cytosol (33.5% in pH 8.8 TAPS/27 mM Na2 MoO4 buffer) were treated with 4 μl each of [^3 H]Dex (in pH 8.8 TAPS buffer) and various concentrations of non-radioactive competing steroid (in 20% EtOH in pH 8.8 TAPS buffer) (final concentration of [^3 H]Dex ≈3 ×10^-8 M). The average specific binding was determined after 2.5 or 24 hr of incubation as described above, expressed as percentage of the non-competed control and plotted versus the log10 of the concentration of the competing steroid.
The specificity of steroid binding was determined by Rodbard correction (Rodbard, 1973) of the data from a competition binding assay (S. S. Simons et al., Biochem. Biophys. Res. Comm. 86:793-800 (1979); Miller and Simons, 1988). […]

| Structure (SMILES) | Relative Ka of Steroid Binding to Receptor |
| --- | --- |
| C[C@]12CC[C@@H]3c4ccc(O)cc4CC[C@H]3[C@@H]1CC[C@@H]2O [17β-Estradiol, 17β-estradiol] | 0.010 ± 0.007 |
| C[C@]12CCC(=O)C=C1CC[C@@H]1[C@@H]2[C@@H](O)C[C@]2(C=O)[C@@H](C(=O)CO)CC[C@@H]12 [Aldosterone, aldosterone] | 0.18 ± 0.002 |
| CC#C[C@]1(O)CC[C@H]2[C@@H]3CCC4=CC(=O)CCC4=C3[C@@H](c3ccc(N(C)C)cc3)C[C@@]21C [RU486] | 6.8 ± 2.2 |

From US5215916A, “Super glucocorticoid receptors: receptors with increased affinity and specificity for glucocorticoid steriods” (priority 1991, dated 1993)
